Source: patent US11655235B2, “Pyrrolidine and piperidine compounds” (YUHAN CORPORATION, priority 2019, dated 2023)

Key:
Format in all cases: biochemical
[1] = biological target: T1, recombinant human DPP9 (Homo sapiens, UniProt Q86TI2); assay: DPP9 inhibition, fluorogenic substrate H-Gly-Pro-AMC; settings: recombinant human DPP9
T1 construct: purchased R&D Systems
In short: (§1)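 Enzyme per reaction: 50 ng DPP9, 20 ng DPP8, 10 ng each DPP7 and PREP. Compounds were serially diluted (8 points, up to 0.5% DMSO) and incubated at 25 °C.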

[2] = biological target: T2, recombinant human DPP7 (Homo sapiens, UniProt Q9UHL4); assay: DPP7 inhibition, fluorogenic substrate Lys-Pro-AMC; settings: recombinant human DPP7
T2 construct: purchased R&D Systems
In short: as §1

[3] = biological target: DPP4 (Homo sapiens, UniProt P27487); assay: DPP4 inhibition, fluorogenic substrate H-Gly-Pro-AMC; design: purchased R&D Systems; settings: recombinant human DPP4
[4] = biological target: T3, recombinant human PREP (Homo sapiens, UniProt P48147); assay: PREP inhibition, fluorogenic substrate Z-Gly-Pro-AMC; settings: Inhibitory Activity (IC50, nM) PREP, recombinant human PREP
T3 construct: purchased R&D System
T3 sequence (P48147 1-710): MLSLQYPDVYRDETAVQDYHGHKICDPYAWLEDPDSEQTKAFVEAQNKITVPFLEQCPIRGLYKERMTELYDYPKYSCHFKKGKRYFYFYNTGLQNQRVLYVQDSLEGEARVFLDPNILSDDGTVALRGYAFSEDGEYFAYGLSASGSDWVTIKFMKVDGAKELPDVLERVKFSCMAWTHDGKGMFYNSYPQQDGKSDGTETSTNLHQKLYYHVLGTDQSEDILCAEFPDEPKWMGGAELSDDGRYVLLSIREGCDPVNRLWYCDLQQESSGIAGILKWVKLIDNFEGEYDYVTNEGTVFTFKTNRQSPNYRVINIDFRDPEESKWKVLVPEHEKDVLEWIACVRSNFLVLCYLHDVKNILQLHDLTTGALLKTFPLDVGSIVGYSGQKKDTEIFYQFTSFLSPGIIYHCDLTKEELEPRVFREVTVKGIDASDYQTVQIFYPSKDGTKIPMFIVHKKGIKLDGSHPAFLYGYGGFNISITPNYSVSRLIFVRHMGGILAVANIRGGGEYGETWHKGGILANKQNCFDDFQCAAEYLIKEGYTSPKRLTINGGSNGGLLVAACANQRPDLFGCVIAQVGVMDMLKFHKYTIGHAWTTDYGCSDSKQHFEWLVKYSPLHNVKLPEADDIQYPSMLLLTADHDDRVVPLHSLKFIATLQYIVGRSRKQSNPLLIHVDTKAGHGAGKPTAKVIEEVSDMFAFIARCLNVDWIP
In short: as §1

[5] = biological target: T4, Recombinant human FAP (Homo sapiens, UniProt Q12884); assay: FAP inhibition, fluorogenic substrate Z-Gly-Pro-AMC; settings: recombinant human FAP, substrate Z-Gly-Pro-AMC
T4 construct: purchased R&D systems
T4 sequence (Q12884 1-760): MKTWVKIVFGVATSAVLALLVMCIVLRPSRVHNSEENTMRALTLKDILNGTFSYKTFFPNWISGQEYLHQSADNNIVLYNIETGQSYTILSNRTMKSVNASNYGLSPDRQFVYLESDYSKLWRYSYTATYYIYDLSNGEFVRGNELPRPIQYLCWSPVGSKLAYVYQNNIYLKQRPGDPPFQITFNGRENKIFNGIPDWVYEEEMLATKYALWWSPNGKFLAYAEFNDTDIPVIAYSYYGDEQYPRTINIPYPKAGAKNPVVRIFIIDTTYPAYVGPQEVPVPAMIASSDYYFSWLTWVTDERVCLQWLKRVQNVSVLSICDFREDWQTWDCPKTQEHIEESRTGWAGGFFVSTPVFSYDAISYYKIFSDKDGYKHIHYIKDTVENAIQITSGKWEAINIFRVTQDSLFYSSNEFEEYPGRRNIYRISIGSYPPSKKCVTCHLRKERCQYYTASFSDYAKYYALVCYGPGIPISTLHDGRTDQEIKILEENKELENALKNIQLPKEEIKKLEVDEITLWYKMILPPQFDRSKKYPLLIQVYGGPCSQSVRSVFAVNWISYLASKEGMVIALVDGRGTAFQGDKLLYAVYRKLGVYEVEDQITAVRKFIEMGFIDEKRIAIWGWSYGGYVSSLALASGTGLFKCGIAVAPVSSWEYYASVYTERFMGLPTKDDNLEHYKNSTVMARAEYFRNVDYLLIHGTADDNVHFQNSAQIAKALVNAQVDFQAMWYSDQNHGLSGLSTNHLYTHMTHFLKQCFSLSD
In short: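 Recombinant human FAP, 10 ng per reaction, in 50 mM Tris pH 7.5 with 1 M NaCl and 1 mg/ml BSA at 25° C; substrate Z-Gly-Pro-AMC, ≤0.1% DMSO. AMC fluorescence read at ex 380/em 460 nm; % signal-rate decrease vs no-inhibitor control, 8-point curves fitted to a four-parameter logistic for IC50.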

[6] = biological target: T5, recombinant human DPP8 (Homo sapiens, UniProt Q6V1X1); assay: DPP8 inhibition, fluorogenic substrate Z-Ala-Pro-AMC; settings: recombinant human DPP8
T5 construct: purchased PBS Bioscience
In short: as §1

Chain of DPP4 (P27487 whole entry): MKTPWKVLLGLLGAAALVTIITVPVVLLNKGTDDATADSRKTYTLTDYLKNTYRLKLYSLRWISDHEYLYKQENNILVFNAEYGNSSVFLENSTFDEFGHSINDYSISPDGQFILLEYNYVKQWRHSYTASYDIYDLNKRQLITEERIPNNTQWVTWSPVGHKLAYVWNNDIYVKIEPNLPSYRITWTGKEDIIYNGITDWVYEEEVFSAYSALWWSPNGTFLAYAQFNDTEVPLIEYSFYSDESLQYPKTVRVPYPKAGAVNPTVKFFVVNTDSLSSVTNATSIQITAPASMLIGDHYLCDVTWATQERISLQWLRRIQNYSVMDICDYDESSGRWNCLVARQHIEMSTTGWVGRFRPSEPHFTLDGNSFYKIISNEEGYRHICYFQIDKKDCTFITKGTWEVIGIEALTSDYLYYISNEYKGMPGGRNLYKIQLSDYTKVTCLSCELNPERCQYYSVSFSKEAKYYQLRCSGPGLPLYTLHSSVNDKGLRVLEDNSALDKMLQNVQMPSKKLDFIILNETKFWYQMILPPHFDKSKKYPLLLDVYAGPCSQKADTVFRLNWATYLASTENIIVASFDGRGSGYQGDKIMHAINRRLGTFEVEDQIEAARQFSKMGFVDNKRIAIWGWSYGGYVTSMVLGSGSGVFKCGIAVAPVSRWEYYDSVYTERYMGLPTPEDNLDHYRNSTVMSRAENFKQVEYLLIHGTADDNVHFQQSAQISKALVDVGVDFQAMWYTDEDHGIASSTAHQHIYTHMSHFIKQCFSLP
T5 sequence (Q6V1X1 whole entry): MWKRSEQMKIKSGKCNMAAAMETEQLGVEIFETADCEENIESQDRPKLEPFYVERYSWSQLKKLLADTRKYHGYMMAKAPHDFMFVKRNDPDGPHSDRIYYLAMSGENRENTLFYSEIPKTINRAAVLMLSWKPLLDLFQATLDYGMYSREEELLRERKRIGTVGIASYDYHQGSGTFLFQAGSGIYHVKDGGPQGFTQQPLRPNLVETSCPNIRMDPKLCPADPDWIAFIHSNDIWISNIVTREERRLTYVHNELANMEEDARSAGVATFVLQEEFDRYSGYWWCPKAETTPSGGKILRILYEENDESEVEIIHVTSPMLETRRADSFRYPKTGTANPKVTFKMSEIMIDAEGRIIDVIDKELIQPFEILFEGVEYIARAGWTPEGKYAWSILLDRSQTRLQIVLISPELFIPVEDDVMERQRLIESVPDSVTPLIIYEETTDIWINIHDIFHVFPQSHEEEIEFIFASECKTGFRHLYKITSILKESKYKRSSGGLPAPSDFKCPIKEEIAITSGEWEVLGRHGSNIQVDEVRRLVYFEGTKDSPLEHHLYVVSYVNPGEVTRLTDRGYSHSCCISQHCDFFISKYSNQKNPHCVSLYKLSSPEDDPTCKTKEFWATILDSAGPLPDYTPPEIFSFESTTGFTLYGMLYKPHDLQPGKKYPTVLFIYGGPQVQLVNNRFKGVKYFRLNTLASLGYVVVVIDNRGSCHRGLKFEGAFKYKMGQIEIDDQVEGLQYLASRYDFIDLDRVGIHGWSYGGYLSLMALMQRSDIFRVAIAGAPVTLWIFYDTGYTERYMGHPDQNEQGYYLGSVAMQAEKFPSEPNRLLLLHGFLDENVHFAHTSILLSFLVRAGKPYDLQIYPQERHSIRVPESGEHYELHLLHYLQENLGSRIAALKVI
T1 sequence (Q86TI2 whole entry): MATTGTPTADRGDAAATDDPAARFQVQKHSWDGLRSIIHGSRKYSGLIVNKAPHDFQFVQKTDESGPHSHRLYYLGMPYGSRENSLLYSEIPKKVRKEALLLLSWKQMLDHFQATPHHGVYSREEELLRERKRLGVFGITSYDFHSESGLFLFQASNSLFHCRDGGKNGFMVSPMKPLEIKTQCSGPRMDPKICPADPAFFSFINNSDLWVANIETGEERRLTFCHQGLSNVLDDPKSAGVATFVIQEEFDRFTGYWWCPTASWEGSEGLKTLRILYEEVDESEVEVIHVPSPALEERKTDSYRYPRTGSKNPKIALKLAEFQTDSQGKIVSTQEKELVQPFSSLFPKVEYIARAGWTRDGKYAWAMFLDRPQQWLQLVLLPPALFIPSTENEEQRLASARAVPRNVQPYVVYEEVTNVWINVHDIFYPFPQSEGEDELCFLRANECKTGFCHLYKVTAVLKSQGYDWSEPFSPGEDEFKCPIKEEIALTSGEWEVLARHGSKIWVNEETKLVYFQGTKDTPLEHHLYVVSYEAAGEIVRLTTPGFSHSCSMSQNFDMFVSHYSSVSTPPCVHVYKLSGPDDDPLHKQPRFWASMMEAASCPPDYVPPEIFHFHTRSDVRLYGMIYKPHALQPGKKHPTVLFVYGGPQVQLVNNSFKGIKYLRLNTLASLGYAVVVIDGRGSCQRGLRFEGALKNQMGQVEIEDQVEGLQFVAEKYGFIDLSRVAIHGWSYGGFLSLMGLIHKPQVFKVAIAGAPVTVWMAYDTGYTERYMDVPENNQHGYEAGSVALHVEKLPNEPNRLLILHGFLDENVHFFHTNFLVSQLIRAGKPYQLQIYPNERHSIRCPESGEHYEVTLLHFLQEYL

Compound	IC50 [1]	IC50 [2]	IC50 [3]	IC50 [4]	IC50 [5]	IC50 [6]
CN(c1cnc2ccccc2c1)C1CCN(CC(=O)N2C[C@@H](F)C[C@H]2C#N)CC1 [Example 316, (2S,4S)-4-fluoro-1-[2-[4-[methyl(3-quinolyl)amino]-1-piperidyl]acetyl]pyrrolidine-2-carbonitrile]	8200 nM	1870 nM	> 10000 nM	500 nM	3.1 nM	> 100000 nM
CN(c1cc2ccccc2cn1)C1CCN(CC(=O)N2C[C@@H](F)C[C@H]2C#N)CC1 [Example 317, (2S,4S)-4-fluoro-1-[2-[4-[3-isoquinolyl(methyl)amino]-1-piperidyl]acetyl]pyrrolidine-2-carbonitrile]	7070 nM	1850 nM	> 10000 nM	299 nM	2.7 nM	> 100000 nM
CN(c1ccc2ccncc2c1)C1CCN(CC(=O)N2C[C@@H](F)C[C@H]2C#N)CC1 [Example 319, (2S,4S)-4-fluoro-1-[2-[4-[7-isoquinolyl(methyl)amino]-1-piperidyl]acetyl]pyrrolidine-2-carbonitrile]	5040 nM	1320 nM	> 10000 nM	503 nM	1.8 nM	3820 nM
N#C[C@@H]1C[C@H](F)CN1C(=O)CN1CCC(Nc2cccc3sccc23)CC1 [Example 336, (2S,4S)-1-(2-(4-(benzo[b]thiophen-4-ylamino)piperidin-1-yl)acetyl)-4-fluoropyrrolidine-2-carbonitrile]	6520 nM	1190 nM	7390 nM	8500 nM	59.3 nM	11500 nM
N#C[C@@H]1C[C@H](F)CN1C(=O)CN1CCC(Nc2ccnc3ccc(F)cc23)CC1 [Example 337, (2S,4S)-4-fluoro-1-[2-[4-[(6-fluoro-4-quinolyl)amino]-1-piperidyl]acetyl]pyrrolidine-2-carbonitrile]	2290 nM	571 nM	8180 nM	2540 nM	7.8 nM	7880 nM
N#C[C@@H]1C[C@H](F)CN1C(=O)CN1CCC(Nc2ccnc3ccc(Cl)cc23)CC1 [Example 338, (2S,4S)-1-[2-[4-[(6-chloro-4-quinolyl)amino]-1-piperidyl]acetyl]-4-fluoro-pyrrolidine-2-carbonitrile]	2940 nM	809 nM	6890 nM	1450 nM	6.5 nM	8330 nM
N#C[C@@H]1C[C@H](F)CN1C(=O)CN1CCC(Nc2cncc3ccccc23)CC1 [Example 339, (2S,4S)-4-fluoro-1-[2-[4-(4-isoquinolylamino)-1-piperidyl]acetyl]pyrrolidine-2-carbonitrile]	> 30000 nM	555 nM	8790 nM	3590 nM	11.4 nM	> 10000 nM
N#C[C@@H]1C[C@H](F)CN1C(=O)CN1CCC(Nc2cccc3cnccc23)CC1 [Example 340, (2S,4S)-4-fluoro-1-[2-[4-(5-isoquinolylamino)-1-piperidyl]acetyl]pyrrolidine-2-carbonitrile]	5310 nM	523 nM	6500 nM	7850 nM	5.1 nM	2400 nM
N#C[C@@H]1C[C@H](F)CN1C(=O)CN1CCC(Nc2cccc3ccncc23)CC1 [Example 342, (2S,4S)-4-fluoro-1-[2-[4-(8-isoquinolylamino)-1-piperidyl]acetyl]pyrrolidine-2-carbonitrile]	5330 nM	316 nM	3260 nM	6650 nM	14 nM	39600 nM
N#C[C@@H]1C[C@H](F)CN1C(=O)CN1CCC(Nc2ccnc3c(C(F)(F)F)cccc23)CC1 [Example 346, (2S,4S)-4-fluoro-1-[2-[4-[[8-(trifluoromethyl)-4-quinolyl]amino]-1-piperidyl]acetyl]pyrrolidine-2-carbonitrile]	3260 nM	339 nM	2350 nM	637 nM	2.7 nM	5960 nM
CN(c1cncc2ccoc12)C1CCN(CC(=O)N2C[C@@H](F)C[C@H]2C#N)CC1 [Example 350, (2S,4S)-4-fluoro-1-[2-[4-[furo[3,2-c]pyridin-7-yl(methyl)amino]-1-piperidyl]acetyl]pyrrolidine-2-carbonitrile]	27500 nM	9080 nM	7900 nM	625 nM	8.2 nM	17500 nM
N#C[C@@H]1C[C@H](F)CN1C(=O)CN1CCC(Nc2cccc3c(Cl)nccc23)CC1 [Example 351, (2S,4S)-1-[2-[4-[(1-chloro-5-isoquinolyl)amino]-1-piperidyl]acetyl]-4-fluoro-pyrrolidine-2-carbonitrile]	4530 nM	842 nM	6730 nM	3280 nM	3.4 nM	2810 nM
N#C[C@@H]1C[C@H](F)CN1C(=O)CN1CCC(Nc2ccc(Cl)c3cnccc23)CC1 [Example 353, (2S,4S)-1-[2-[4-[(8-chloro-5-isoquinolyl)amino]-1-piperidyl]acetyl]-4-fluoro-pyrrolidine-2-carbonitrile]	2880 nM	1060 nM	5890 nM	3570 nM	4.5 nM	> 10000 nM
Cc1cncc2cccc(NC3CCN(CC(=O)N4C[C@@H](F)C[C@H]4C#N)CC3)c12 [Example 354, (2S,4S)-4-fluoro-1-[2-[4-[(4-methyl-5-isoquinolyl)amino]-1-piperidyl]acetyl]pyrrolidine-2-carbonitrile]	4940 nM	428 nM	2080 nM	2820 nM	8.9 nM	1780 nM
N#C[C@@H]1C[C@H](F)CN1C(=O)CN1CCC(Nc2ccc([N+](=O)[O-])c3cnccc23)CC1 [Example 356, (2S,4S)-4-fluoro-1-[2-[4-[(8-nitro-5-isoquinolyl)amino]-1-piperidyl]acetyl]pyrrolidine-2-carbonitrile]	741 nM	2050 nM	4020 nM	4980 nM	3.7 nM	953 nM
N#C[C@@H]1C[C@H](F)CN1C(=O)CN1CCC(Nc2ccc(F)c3cnccc23)CC1 [Example 357, (2S,4S)-4-fluoro-1-[2-[4-[(8-fluoro-5-isoquinolyl)amino]-1-piperidyl]acetyl]pyrrolidine-2-carbonitrile]	2800 nM	1640 nM	4710 nM	4830 nM	3.8 nM	3600 nM
COc1cc2nc(Cl)nc(NC3CCN(CC(=O)N4CCC[C@H]4C#N)CC3)c2cc1OC [Example 358, (2S)-1-[2-[4-[(2-chloro-6,7-dimethoxy-quinazolin-4-yl)amino]-1-piperidyl]acetyl]pyrrolidine-2-carbonitrile]	64600 nM	1440 nM	> 10000 nM	11800 nM	3.7 nM	30000 nM
